Common to all, as to format: cell-based
The test system of assay [1] is phospho-Akt in HCC827 (Wild-type). Put plainly: In-Cell Western phospho-Akt, HCC827. Particulars: Homo sapiens, 1 h; HCC827, one hour treatment; read-out: In-Cell Western HCC827 (Wild-type) Akt (P). The procedure:
In-cell phosphorylation assays for Erk and Akt were performed on several of the compounds and exemplary results are shown in Table 3 below using HCC827 and A375 cell lines for wild type K-Ras and Panc1 and Panc10.05 cell lines for G12D K-Ras mutants. Results are expressed in μM and corresponding structures are shown in FIGS. 2A-2G and Examples 1-152, above.
Cells are seeded in complete medium into black sided, clear-bottom 384-well microplates at 3000 cells/[…]/well. Plates are returned to 37° C. CO2 incubator for 18 hr. Drug is made as 200× in DMSO and diluted into medium to 10×. To each well is added 4 ul 10× test article or controls, and plates are returned to the incubator. Final assay DMSO concentration is 0.5%. After one hour, cells are fixed in formaldehyde, rinsed & permeabilized with triton X-100, and blocked with BSA/Goat serum blocking solution. Primary phospho-Akt and phospho-ERK antibodies are added and plates are incubated overnight at 4° C. Plates are rinsed with Tween-20 wash buffer and secondary antibody (Goat anti-rabbit, Thermofisher) is added. After 2 hours, plates are rinsed in Tween-20 wash buffer, and then PBS. Plates are imaged on the Celigo (Nexcelom) and cellular fluorescence is quantitated. Full inhibition of phospho-Akt is achieved with 1 uM BEZ235 (Sellekchem), while full inhibition of phospho-ERK is achieved with 1 uM MEK Inhibitor II Calbiochem). EC50 values are calculated using Graphpad Prism.

Assay [2] concerns U87-MG (K-Ras wild type cell line). Kind of assay: Viability assay (CellTiterBlue, 72 hr) U87-MG. Particulars: Homo sapiens, U-87 MG, GI50, CellTiterBlue, U87-MG K-Ras wild-type. In outline: (§1)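 1000 cells/well, 18 hr pre-incubation at 37 °C; compound added from DMSO stock, 0.5% DMSO final; 72 hr; CellTiterBlue 3 hr, fluorescence Ex550/Em590; GI50 normalized to DMSO = 100%, 100 uM tamoxifen = 0% viability.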
(Alamar Blue is a resazurin reagent that responds to reducing activity.)

In assay [3] the test system is phospho-Akt in Panc1 (G12D). Put plainly: In-Cell Western phospho-Akt, Panc1. Particulars: Homo sapiens, PANC-1, 1 h; Panc1, one hour treatment; read-out: In-Cell Western Panc1 (G12D) Akt (P). In outline: (§2)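 Read-out: imaged cellular fluorescence after phospho-ERK/phospho-Akt immunostaining; EC50 derived. Cells plated 3000/well, 18 hr 37° C, compound 1 hr, 0.5% DMSO. Full-inhibition controls: 1 uM BEZ235 (pAkt), 1 uM MEK Inhibitor II (pERK).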

For the next assay, the system named is Panc10.05-G12D. Put plainly: Viability assay (CellTiterBlue, 72 hr) Panc10.05. The settings on record: Homo sapiens, Panc1005, GI50, CellTiterBlue, Panc10.05 K-Ras G12D, read-out: 72 hr Cell Viability Panc10.05 (G12D). Put shortly:
as §1

Assay [4] has as its system HCC827 (K-Ras wild type cell line). Put plainly: Viability assay (CellTiterBlue, 72 hr) HCC827. The settings on record: Homo sapiens, GI50, CellTiterBlue, HCC827 K-Ras wild-type. Put shortly: as §1
For a further assay, the system named is Panc1-G12D. Kind of assay: Viability assay (CellTiterBlue, 72 hr) Panc1. The settings on record: Homo sapiens, PANC-1, GI50, CellTiterBlue, Panc1 K-Ras G12D, read-out: 72 hr Cell Viability Panc1 (G12D). In outline: as §1
The test system of assay [5] is Ishikawa (K-Ras wild type cell line). Kind of assay: Viability assay (CellTiterBlue, 72 hr) Ishikawa. Particulars: Homo sapiens, GI50, CellTiterBlue, Ishikawa K-Ras wild-type. Put shortly:
as §1

Assay [6] has as its system phospho-ERK in HCC827 (Wild-type). Put plainly: In-Cell Western phospho-ERK, HCC827. The settings on record: Homo sapiens, 1 h; HCC827, one hour treatment; read-out: In-Cell Western HCC827 (Wild-type) Erk (P). Put shortly:
as §2

The next assay concerns HCT116-G31D. Put plainly: Viability assay (CellTiterBlue, 72 hr) HCT116. The settings on record: Homo sapiens, HCT-116, GI50, CellTiterBlue, HCT116 K-Ras G13D, read-out: 72 hr Cell Viability HCT116 (G13D). In outline: as §1
Assay [7] deals with phospho-ERK in Panc1 (G12D). Put plainly: In-Cell Western phospho-ERK, Panc1. Particulars: Homo sapiens, PANC-1, 1 h; Panc1, one hour treatment; read-out: In-Cell Western Panc1 (G12D) Erk (P). In outline:
as §2

The target of the next assay is T1, K-Ras G12D (Homo sapiens, UniProt P01116, G12D).
T1 construct: expressed in transfected cells; host or cells: 293H cells
T1 sequence (P01116 whole entry G12D): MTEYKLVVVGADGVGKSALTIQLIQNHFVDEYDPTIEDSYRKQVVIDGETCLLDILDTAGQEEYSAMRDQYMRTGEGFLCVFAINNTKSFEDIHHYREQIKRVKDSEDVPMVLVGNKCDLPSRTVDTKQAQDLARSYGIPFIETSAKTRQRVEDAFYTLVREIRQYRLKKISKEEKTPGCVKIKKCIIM
Put plainly: G-LISA Ras activation, 293H cells transfected with G12D mutant. The settings on record: compound 1 hour. In outline: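 G-LISA Ras-GTP readout; 293H transfectants treated 1 h with 3.125-25 μM compound, EGF pulse (100 ng/ml, 2 min) for wild-type only.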

Where only a bound is given, the exact number is not on record here.

In the case of `Cn1cc(C(=O)Nc2nc(-c3ccc4c(c3)CCC(=O)N4)cs2)c(C(C)(C)C)n1` [Compound 38, 3-(tert-butyl)-1-methyl-N-(4-(2-oxo-1,2,3,4-tetrahydroquinolin-6-yl)thiazol-2-yl)-1H-pyrazole-4-carboxamide], the EC50 is greater than 25 µM in assay [1], 24 µM in assay [3], 13 µM in assay [6] and greater than 25 µM in assay [7]. The IC50 is greater than 25 µM in [2]; 7 µM in the assay on Panc10.05-G12D; greater than 25 µM in assay [4]; greater than 25 µM in the assay with Panc1-G12D; 7 µM in assay [5]; greater than 25 µM in the assay on HCT116-G31D.
On to `Cn1ncc(C(=O)Nc2nc(-c3ccc4c(c3)CCC(=O)N4)cs2)c1C1CC1` [Compound 35, 5-cyclopropyl-1-methyl-N-(4-(2-oxo-1,2,3,4-tetrahydroquinolin-6-yl)thiazol-2-yl)-1H-pyrazole-4-carboxamide], for which the EC50 in assay [1] is greater than 25 µM; in assay [3], greater than 25 µM; in assay [6] it was 11 µM; in assay [7], greater than 25 µM. Besides, the IC50 was 6 µM in assay [2]; greater than 25 µM in the assay with Panc10.05-G12D; 7 µM in assay [4]; greater than 25 µM in the assay with Panc1-G12D; 19 µM in assay [5]; greater than 25 µM with HCT116-G31D. For the same compound, at K-Ras G12D, the IC50 is greater than 25 µM.
As for `Cn1cc(C(=O)Nc2nc(-c3ccc4c(c3)CCC(=O)N4)cs2)c(C(F)F)n1` [Compound 27, 3-(difluoromethyl)-1-methyl-N-(4-(2-oxo-1,2,3,4-tetrahydroquinolin-6-yl)thiazol-2-yl)-1H-pyrazole-4-carboxamide], the EC50 is greater than 25 µM in assay [1], greater than 25 µM in assay [3], greater than 25 µM in [6] and 14 µM in [7]. The IC50 in [2] was greater than 25 µM; with Panc10.05-G12D, 16 µM; in assay [4], greater than 25 µM; in the assay on Panc1-G12D, greater than 25 µM; in [5], greater than 25 µM; with HCT116-G31D, greater than 25 µM.
For the compound `CCn1ncc(C(=O)Nc2nc(-c3ccc4c(c3)CCC(=O)N4)cs2)c1C1CC1` [Compound 33, 5-cyclopropyl-1-ethyl-N-(4-(2-oxo-1,2,3,4-tetrahydroquinolin-6-yl)thiazol-2-yl)-1H-pyrazole-4-carboxamide], the EC50 in [1], in assay [3], in assay [6] and in assay [7] was greater than 25 µM throughout. In addition, the IC50 (in assay [2]; with Panc10.05-G12D; in [4]; with Panc1-G12D; in [5]; with HCT116-G31D) was greater than 25 µM each time. On K-Ras G12D, this compound showed an IC50 greater than 25 µM.
Take `CCn1cc(C(=O)Nc2nc(-c3ccc4c(c3)CCC(=O)N4)cs2)c(C(F)(F)F)n1` [Compound 39, 1-ethyl-N-(4-(2-oxo-1,2,3,4-tetrahydroquinolin-6-yl)thiazol-2-yl)-3-(trifluoromethyl)-1-pyrazole-4-carboxamide]: the EC50 in assay [1] was greater than 25 µM; in assay [3], greater than 25 µM; in assay [6], greater than 25 µM; in assay [7] it was 28 µM. For the same compound, the IC50 (in assay [2]; with Panc10.05-G12D; in assay [4]; with Panc1-G12D; in assay [5]; with HCT116-G31D) was greater than 25 µM throughout.
On to `Cc1nn(-c2ccccc2)cc1C(=O)Nc1nc(-c2ccc3c(c2)CCC(=O)N3)cs1` [Compound 31, 3-methyl-N-(4-(2-oxo-1,2,3,4-tetrahydroquinolin-6-yl)thiazol-2-yl)-1-phenyl-1H-pyrazole-4-carboxamide], for which the EC50 in [1], in assay [3], in assay [6] and in assay [7] was greater than 25 µM in each case. Besides, the IC50 (in assay [2]; in the assay with Panc10.05-G12D; in assay [4]; with Panc1-G12D; in assay [5]; in the assay with HCT116-G31D) was greater than 25 µM in each case.
In the case of `Cn1cc(C(=O)Nc2nc(-c3ccc4c(c3)CCC(=O)N4)cs2)c(-c2ccccc2)n1` [Compound 29, 1-methyl-N-(4-(2-oxo-1,2,3,4-tetrahydroquinolin-6-yl)thiazol-2-yl)-3-phenyl-1H-pyrazole-4-carboxamide], the EC50 in assay [1] is greater than 25 µM; in assay [3], greater than 25 µM; in [6] it was 21 µM; in assay [7] it was 13 µM. For the same compound, the IC50 (in assay [2]; in the assay on Panc10.05-G12D; in assay [4]; in the assay on Panc1-G12D; in assay [5]; in the assay on HCT116-G31D) was greater than 25 µM in each case.
For the compound `Cn1cc(C(=O)Nc2nc(-c3ccc4c(c3)CCC(=O)N4)cs2)cn1` [Compound 28, 1-methyl-N-(4-(2-oxo-1,2,3,4-tetrahydroquinolin-6-yl)thiazol-2-yl)-1H-pyrazole-4-carboxamide], the EC50 was greater than 25 µM in assay [1], greater than 25 µM in assay [3], 16 µM in assay [6] and greater than 25 µM in assay [7]. Moreover, the IC50 (in [2]; in the assay on Panc10.05-G12D; in assay [4]; in the assay on Panc1-G12D; in assay [5]; with HCT116-G31D) was greater than 25 µM each time.
With `CC(C)c1nn(C)cc1C(=O)Nc1nc(-c2ccc3c(c2)CCC(=O)N3)cs1` [Compound 32, 3-isopropyl-1-methyl-N-(4-(2-oxo-1,2,3,4-tetrahydroquinolin-6-yl)thiazol-2-yl)-1H-pyrazole-4-carboxamide], the EC50 in assay [1] is greater than 25 µM; in [3], 26 µM; in assay [6], 20 µM; in assay [7], greater than 25 µM. In addition, the IC50 in assay [2] was 9 µM; in the assay with Panc10.05-G12D, greater than 25 µM; in assay [4], 8 µM; in the assay with Panc1-G12D, greater than 25 µM; in assay [5], greater than 25 µM; in the assay on HCT116-G31D, greater than 25 µM.
Take `COc1nn(C)cc1C(=O)Nc1nc(-c2ccc3c(c2)CCC(=O)N3)cs1` [Compound 42, 3-methoxy-1-methyl-N-(4-(2-oxo-1,2,3,4-tetrahydroquinolin-6-yl)thiazol-2-yl)-1H-pyrazole-4-carboxamide]: the EC50 in assay [1], in assay [3], in [6] and in assay [7] was greater than 25 µM throughout. Also, the IC50 (in assay [2]; in the assay with Panc10.05-G12D; in assay [4]; in the assay on Panc1-G12D; in assay [5]; in the assay with HCT116-G31D) was greater than 25 µM each time.
